One compound from patent US20220133894A1, “BISPHOSPHONATE-LINKED COMPOUNDS” (OREGON HEALTH & SCIENCE UNIVERSITY, priority 2019, published 2022) can be followed below.

For one experiment, the system named is VCaP cells. As to the kind of experiment: SRB growth inhibition assay, VCaP. It is filed as cell-based, human. Conditions: 10 μM enzalutamide, 10 μM KBU2046 added to control or enzalutamide treated cells, 72 hours. How it is done: LNCaP or VCaP cells cultured in hormone free media were treated with R1881 (R), KBU2046 (46) and/or enzalutamide (E). (FIGS. 3A and 3B) Effects on AR-responsive gene expression. PSA expression was measured by qRT/PCR, normalized to GAPDH and expressed as a percent of control cells (N=3 replicates); * denotes P<0.05 for groups separated by bar. (FIGS. 3C and 3D) Effects on cell growth. Three day growth assays were performed. Data are the number of viable cells, expressed as % of control (N=3 replicates); * P<0.05 compared to control. (E) Effects on AR activation. Western blots of nuclear (N) and cytoplasmic (C) preparations of cell extracts were probed for AR, laminin 1 or α-tubulin. (FIGS. 3F and 3G) Effects on tumor outgrowth after androgen deprivation therapy. LNCaP/AR-luc cells were implanted subcutaneously (N=6 mice/cohort) or orthotopic (N=15 mice/cohort were implanted; N=5 yielded tumors) into castrate mice, treatment with KBU2046 began as noted, and weekly IVIS imaging performed. Data are tumor size, expressed as luminescence intensity. All data are expressed as mean±SEM.
Enzalutamide mediated growth inhibition was assessed using Sulforhodamine B (SRB) growth inhibition assays, were performed as previously described (49). In brief, LNCaP and VCaP cells were pre-incubated in charcoal-striped medium for 48 hours and then seeded (1.9×10^4) in 96-well plates. […]

In another experiment the test system is AR. As to the kind of experiment: Subcellular localization of androgen receptor, Western blot of nuclear and cytoplasmic fractions. Particulars: LNCaP and VCaP cells, 10 μM KBU2046. It counts as cell-based, human. The source says:
Several considerations warranted a deeper examination of the effect of KBU2046 on AR function. […] Additionally, AR is a client protein of HSP90, AR function requires HSP90-mediated chaperone action, and direct inhibitors of HSP90 decrease client protein expression and inhibit AR function (24-26 Fang et al., J Biol Chem 271, 28697-28702 (1996); Saporita et al., Prostate 67, 509-520 (2007); and Ni et al., Mol Cell Biol 30, 1243-1253 (2010)). […] It is a selective HSP90 activity modulator (SHAM), and selectively modulates client proteins that regulate cell motility. However, the effect of KBU2046 on AR expression and function had not been examined. […]
LNCaP or VCaP cells cultured in hormone free media were treated with R1881 (R), KBU2046 (46) and/or enzalutamide (E). […] PSA expression was measured by qRT/PCR, normalized to GAPDH and expressed as a percent of control cells (N=3 replicates); * denotes P<0.05 for groups separated by bar. […] Data are the number of viable cells, expressed as % of control (N=3 replicates); * P<0.05 compared to control. […] Data are tumor size, expressed as luminescence intensity. All data are expressed as mean±SEM.
LNCaP and VCaP cells were pre-incubated in the charcoal-striped medium containing 10 μM KBU2046 or vehicle control for 72 hours. […] Protein was quantified by BCA assay (Thermo-Fisher Scientific, Waltham, Mass.), per manufacturer's instructions. […]

The test system of a further experiment is Raf1. The experiment can be described thus: Western blot of Raf1 phosphorylation in RANKL treated osteoclast cells. It is filed as cell-based, mouse. Particulars: 10 μM KBU2046, RANKL treated RAW 267.4 cells, time-dependent. The source says: To examine this paradigm we first evaluated whether KBU2046 would inhibit Raf1 phosphorylation in osteoclasts. After treatment with RANKL, RAW 267.4 cells differentiate into mature osteoclasts. Upon maturation osteoclast become multinucleated, express tartrate resistant acid phosphatase (TRAP), and have the capacity to form actin rings that create an occluded cavity in which bone is degraded. KBU2046 inhibits phosphorylation of Raf1's activation motif in RANKL treated RAW 267.4 osteoclast cells, and does so in a time-dependent manner (FIG. 4A). In osteoclasts Raf1 is known to phosphorylate MEK1/2, in turn phosphorylating ERK1/2 (Bradley et al., J Cell Biochem 104, 1439-1451 (2008)), with the latter acting to stimulate osteoclast differentiation and bone resorptive activity (He et al., PLoS One 6, e24780 (2011); and Nakamura et al., J Bone Miner Res 18, 1198-1205 (2003)).
FIG. 4 represents the KBU2046 inhibition of osteoclast function. FIG. 4A compares effects on Raf1 activation. […] RAW 267.4 cells were plated onto Osteo Assay plates, treated with RANKL for 6 days and with KBU2046 (or vehicle for controls) as indicated and bone surface area quantified. Data are the mean±SEM (N=3 replicates) of bone surface area, expressed as the percentage of control cells; * denotes P<0.05 compared to control. […]
In general terms: A western blot detects proteins with antibodies after separation by electrophoresis.

Consider `O=C1c2ccccc2OCC1c1ccc(F)cc1` (stereo not drawn) [KBU2046, 3-(4-fluorophenyl)chroman-4-one], for which the cell growth entry in the experiment with VCaP cells is recorded as “no significant effect”. For the same compound, the “AR expression or nuclear localization in response to R1881, and its inhibition by enzalutamide” value with AR is on record as “did not affect”. Further, the “phosphorylation of Raf1's activation motif” value in the experiment on Raf1 was “inhibits”.
